Measured values as given in paper PMC6784148 (Toxins, 2019).
Like-named read-outs stand apart in the source and are kept apart here.

Tests used:
[1] = tested on: intestinal porcine epithelial cell line (IPEC-J2)
HepG2 cells = conditions: up until a concentration of 100 µM; cited from earlier work
[2] = tested on: intestinal porcine epithelial cell line (IPEC-J2); assay: cells; conditions: Sus scrofa, IPEC-J2, 48 h
in vitro = conditions: pig
rats = tested on: rats; set-up: method as in PMID 9872769; conditions: at levels of 0.05 and 0.1%; cited from earlier work
HT29 cells = tested on: HT29 cells; set-up: method as in PMID 29248571; conditions: after 48 h; cited from earlier work
HCEC-1CT cells = tested on: HCEC-1CT cells; set-up: method as in PMID 29248571; conditions: after 48 h; cited from earlier work
[3] = tested on: three different cancer cell lines; set-up: method as in PMID 1172201; conditions: cited from earlier work
[4] = pigs; cited from earlier work
[5] = set-up: method as in PMID 24239892, PMID 22008903; conditions: cited from earlier work
THP-1 monocytes = tested on: THP-1 monocytes; set-up: method as in doi:10.3920/WMJ2014.1861; conditions: cited from earlier work
Caco-2 cells = tested on: Caco-2 cells; set-up: method as in doi:10.3920/WMJ2014.1861; conditions: 780 µM, 48 h of incubation; cited from earlier work
[6] = tested on: glucuronidation of DON in human liver microsomes; set-up: method as in PMID 31049613, PMID 29465119; conditions: cited from earlier work

| Molecule | Negative effects on IPEC-J2 in the tested concentration range [1] | IC50 ([2]; read-out: Relative IC50 value) | Relative IC50 value [1] | Absolute IC50 value [1] | also measured |
| --- | --- | --- | --- | --- | --- |
| O=C(O)CC[N+](=O)[O-] [3-nitropropionic acid] | None | – | – | – | – |
| Cc1cc(O)cc2oc(=O)c3c(O)cc(O)cc3c12 [Alternariol] | – | 20.3 µM | 5232 µg/kg | – | Cell viability of HepG2 cells (HepG2 cells): did not decrease in a concentration-dependent manner; viability (in vitro): ~50%; viability at 20 µM (in vitro): 76.3%; Cytotoxic effect on IPEC-J2 (in words) [1]: slight decrease in viability |
| CCC(=O)CCCCC[C@@H]1NC(=O)[C@H]2CCCCN2C(=O)[C@H]([C@@H](C)CC)NC(=O)[C@H](Cc2cn(OC)c3ccccc23)NC1=O [Apicidin] | – | 0.49 µM | 306 µg/kg | 324 µg/kg | Toxic effects in rats (rats): leading to death; IC50 ([2]; read-out: Absolute IC50 value): 0.52 µM |
| COC1=C(C2=C(OC)C(=O)c3cc4oc(C)cc(=O)c4c(O)c3C2=O)C(=O)c2c(cc3oc(C)cc(=O)c3c2O)C1=O [Aurofusarin] | – | – | 5329 µg/kg | 6766 µg/kg | Concentration at which a significant decrease in viability starts (HT29 cells): 5 µM; IC50 ([1]; read-out: Absolute IC50 value): 11.9 µM; IC50 ([1]; read-out: Relative IC50 value): 9.34 µM; Concentration at which a significant decrease in viability starts (HCEC-1CT cells): 5 µM |
| COC1=CC(=O)c2c(c(O)c3oc4cc(OC)cc(C)c4c(=O)c3c2O)C1=O [Bikaverin] | – | 0.75 µM | 287 µg/kg | 711 µg/kg | ED50 (cytotoxicity) [3]: 0.5 to 4.2 µg/mL; ED50 (cytotoxicity) ([3]; µg/mL values expressed in µM): 1.31 to 10.99 µM; IC50 ([2]; read-out: Absolute IC50 value): 1.86 µM; Viability after applying higher concentrations [1]: did not further decrease below 50% |
| CC1=C[C@H]2O[C@@H]3[C@H](O)C[C@](C)([C@@]2(CO)[C@H](O)C1=O)[C@]31CO1 [Deoxynivalenol, reference compound] | – | – | 557 µg/kg | 756 µg/kg | Bioavailability after oral administration [4]: 98.6% ± 23.6%; IC50 ([1]; read-out: Absolute IC50 value): 2.55 µM; IC50 ([1]; read-out: Relative IC50 value): 1.88 µM |
| Cc1cc(O)c2c(c1)C(=O)c1cc(O)cc(O)c1C2=O [Emodin] | – | 13.1 µM | 3537 µg/kg | 5056 µg/kg | IC50 ([2]; read-out: Absolute IC50 value): 18.7 µM; Viability after applying higher concentrations [1]: did not further decrease below 50%; Viability at concentrations >50 µM [1]: did not further decrease |
| CC[C@H](C)[C@H]1C(=O)O[C@H](C(C)C)C(=O)N(C)[C@@H](C(C)C)C(=O)O[C@H](C(C)C)C(=O)N(C)[C@@H](C(C)C)C(=O)O[C@H](C(C)C)C(=O)N1C [Enniatin B1] | – | 2.69 µM | 1759 µg/kg | 2400 µg/kg | Oral bioavailability [5]: high oral bioavailability; IC50 ([2]; read-out: Absolute IC50 value): 3.67 µM |
| CC(C)[C@H]1C(=O)O[C@H](C(C)C)C(=O)N(C)[C@@H](C(C)C)C(=O)O[C@H](C(C)C)C(=O)N(C)[C@@H](C(C)C)C(=O)O[C@H](C(C)C)C(=O)N1C [Enniatin B] | – | 3.49 µM | 2233 µg/kg | 2079 µg/kg | IC50 ([2]; read-out: Absolute IC50 value): 3.25 µM; Viability after applying higher concentrations [1]: did not further decrease below 50% |
| C/C=C/[C@@H]1C=C[C@@H]2C[C@H](C)CC[C@H]2[C@]1(C)/C(O)=C1/C(=O)[C@H](CO)N(C)C1=O [Equisetin] | – | – | 4120 µg/kg | – | Cytotoxic effect on IPEC-J2 (in words) [1]: slight decrease in viability; Cell viability ([1]; 20 µM): 64.0% (±7.6%); IC50 ([1]; read-out: Relative IC50 value): 11 µM |
| CN1C(=O)[C@]23CC4=CC=C[C@H](O)[C@H]4N2C(=O)[C@@]1(CO)SS3 [Gliotoxin] | – | 0.63 µM | 206 µg/kg | 209 µg/kg | IC50 ([2]; read-out: Absolute IC50 value): 0.64 µM |
| COc1c(C)c2c(c(O)c1C/C=C(\C)CCC(=O)O)C(=O)OC2 [Mycophenolic Acid, Mycophenolic acid] | – | 0.543 µM | 170 µg/kg | – | viability (in vitro): ≥ 66%; Abrupt decreased viability [1]: 26.1% ± 12.1%; Cytotoxic effect on IPEC-J2 (in words) [1]: slight decrease in viability; Viability at concentrations from 2.5 to 150 µM [1]: no further loss in viability; IC50 ([1]; read-out: Relative IC50 value): 0.53 µM; Effect in THP-1 monocytes (THP-1 monocytes): no effect; Decrease of mitochondrial activity (Caco-2 cells): 45% |
| O=C1C=C2C(=CCOC2O)O1 (stereo not shown) [Patulin] | – | 3.18 µM | 490 µg/kg | 495 µg/kg | IC50 ([2]; read-out: Absolute IC50 value): 3.21 µM |
| COc1cc(O)c2c(O)c3c(=O)cc(C)oc3cc2c1 [Rubrofusarin] | – | 21.5 µM | 5865 µg/kg | – | viability at 50 µM (in vitro): 64 ± 8.7%; Cytotoxic effect on IPEC-J2 (in words) [1]: slight decrease in viability |
| COc1cc(O)c2c(=O)oc3cc(O)cc(C)c3c2c1 [alternariol monomethyl ether] | None | – | – | – | – |
| O=C1N[C@@H](Cc2c[nH]c3ccccc23)C(=O)N2CCC[C@@H]12 [brevianamid F] | None | – | – | – | – |
| CC1(C)CCC[C@]2(C)[C@@H]3[C@H]1[C@@H](O)[C@@]2(C)C[C@H]3O [culmorin] | None | – | – | – | Effect on glucuronidation of DON [6]: able to inhibit the glucuronidation of DON; Cytotoxic effect on IPEC-J2 (in words) [1]: no cytotoxic effect |
| O=C1N[C@@H](Cc2ccc(O)cc2)C(=O)N2CCC[C@@H]12 [cyclo-(L-Pro-L-Tyr)] | None | – | – | – | Cytotoxic effect on IPEC-J2 (in words) [1]: non-cytotoxic |
| CC(C)[C@@H]1NC(=O)[C@@H]2CCCN2C1=O [cyclo-(L-Pro-L-Val)] | None | – | – | – | – |
| CCCCc1ccc(C(=O)O)nc1 [fusaric acid] | None | – | – | – | – |
| O=c1cc(CO)occ1O [kojic acid] | None | – | – | – | – |
| O=c1cc(O)c1=O [moniliformin] | None | – | – | – | – |
| C=CC(C)(C)[C@@]12C[C@H]3C(=O)N/C(=C/c4c[nH]cn4)C(=O)N3[C@@H]1Nc1ccccc12 [roquefortine C] | None | – | – | – | – |
| CC(C)C[C@@H]1NC(=O)[C@H](C)N(C)C(=O)CNC(=O)/C(=C/c2ccccc2)N(C)C1=O [tentoxin] | None | – | – | – | – |
| OCCc1c[nH]c2ccccc12 [tryptophol] | None | – | – | – | – |
| Beauvericin | – | – | 1756 µg/kg | 1905 µg/kg | IC50 ([1]; read-out: Absolute IC50 value): 2.43 µM; IC50 ([1]; read-out: Relative IC50 value): 2.24 µM |
| Enniatin A | – | – | 1964 µg/kg | 2319 µg/kg | IC50 ([1]; read-out: Absolute IC50 value): 3.4 µM; IC50 ([1]; read-out: Relative IC50 value): 2.88 µM |
| Enniatin A1 | – | – | 2151 µg/kg | 2772 µg/kg | IC50 ([1]; read-out: Absolute IC50 value): 4.15 µM; IC50 ([1]; read-out: Relative IC50 value): 3.22 µM |
